In patent US11241412B2 (priority 2015, dated 2022):
Converted amounts (≈) assume the structure as drawn. “And” between values parts separate entries of the source, which are not always exact repeats. Equal values may be shown once. Read-outs that look alike come from different tables or passages of the source.

Legend:
[1] = tested on: platelet aggregation induced by ADP, epinephrine and collagen; details: cited from earlier work
[2] = for adverse local or systemic effects after subcutaneous tumescent infiltration: dilute drug in TAD solution; for AUC / Cmax: Table 16B
Text: Five pharmacokinetic studies each involved one IVAD procedure and one or two TAD procedures or a concomitant TAD+IVAD procedure. […] The AUC∞ and Cmax with TAD and with IVAD were compared.
The protocol received institutional review board approval and written informed consent was obtained prior to each research procedure. We compared tumescent antibiotic delivery (TAD) and intravenous antibiotic delivery (IVAD) with respect to concentration-time profile, AUC∞, Cmax and T>MIC.
Only after a prospective patient had requested liposuction surgery was the person offered the opportunity to participate in this research. Volunteer subjects were offered liposuction at no cost.
Exclusion criteria were: current significant health problems, history or evidence of HIV or Hepatitis C infection and […] of drugs that block cytochrome P450 3A4 or 1A2 or impair hemostasis.
Each of the 5 studies consisted of one IV antibiotic delivery (IVAD) procedure and one or two TAD infiltration procedures. In individual subjects, procedures were performed at least one week apart.
Metronidazole for IV delivery is available as 500 mg in 100 ml.
The discomfort of tumescent infiltration was minimized by a sequential infiltration technique: first using a spinal needle to infiltrate a relatively small volume of TAD sufficient to provide minimal anesthesia to allow comfortable insertion of blunt-tipped 16 gauge tumescent infiltration cannulas that provide large volume infiltration. The spinal needle and blunt-tipped infiltration cannulas were inserted through the skin via 1 mm adits made by a 1 mm skin biopsy punch. All patients were fully awake and received no parenteral sedation.
Sample Collection: After […], only serum concentrations were measured. After TAD both serum and TISF concentrations were measured. IVAD was achieved via an antecubital vein. Serum samples were obtained via an indwelling IV catheter in the contralateral antecubital vein.
A two-syringe sampling technique first removed 2 mL of blood, which was discarded, and then 10 mL of blood was obtained in a second syringe for drug assay. After each blood sample the IV catheter was flushed with 2 ml of saline and then 0.5 mL of heparin (10 units/mL).
Sequential samples of tumescent adipose tissue (10 ml to 20 ml) were obtained by the hand-held syringe liposuction technique. Sampling began at time T0 immediately after completing TAD infiltration and continued every 1 to 2 hours until the subject experienced significant discomfort as the result of diminishing local anesthesia. Samples of the subcutaneous tissue aspirate were centrifuged. The supranatant fat was discarded.
Data Analysis: We recorded the effect of varying the mg dose and mg/L concentration of antibiotics within TAD solutions between procedures in individual subjects and between different subjects.
Linear regression analysis was used to determine the correlation (coefficient of determination R2) between the antibiotic concentration (mg/L) in a TAD solution and Cmax in the infranatant liposuctioned subcutaneous tissue TISF. After TAD and after IVAD, Cmax in serum was determined by inspection of the sequential assays. AUC∞ was determined by the trapezoid rule.
At the time when each sample of TISF was obtained, patients were examined and questioned about signs and symptoms of subcutaneous tissue toxicity including unusual soreness, tenderness, discoloration, swelling at sites of subcutaneous tumescent infiltration. […] One week after TAD patients were questioned by telephone about any signs and symptoms of subcutaneous tissue toxicity at the sites of TAD.

[3] = Safety of tumescent drug delivery: subcutaneous infiltration of 20 ml tumescent solutions; details: for ecchymosis / local tenderness upon palpation / stinging upon injection: subcutaneous TI, 20 ml, 6 of 6 subjects
Protocol: We studied 6 subjects over 6 days after subcutaneous infiltration of a 20 ml of tumescent solutions of acyclovir and 20 ml of tumescent gentamicin with 20 ml of subcutaneous normal saline and 20 ml of subcutaneous bacteriostatic saline as controls.

[4] = tested on: Staphylococcus aureus (MRSA) ATCC 33592; type: cell-based
Text: Determinations of MBC followed the method described in “Report on the Working Party on Antibiotic Sensitivity Testing of the British Society of Antimicrobial Chemotherapy: A Guide to Sensitivity Testing.”

[5] = mixed together in a saline solution for IV delivery; 8° C.; cited from earlier work
[6] = tested on: Staphylococcus aureus (MRSA) ATCC 33592; test: microbe, parasite or virus in culture; details: 24 h, read-out: MIC end point
Protocol: (§1) Following inoculation, survival of test microorganisms was determined.

[7] = tested on: Staphylococcus aureus (MRSA) ATCC 33592; details: combined test product Lidocaine+Cefazolin
Protocol: as §1

human neutrophils = details: cited from earlier work
[8] = adults; TLA without liposuction
platelet function = test: Bleeding time and bleeding area before and after tumescent lidocaine exposure (Duke method); type: in vivo, human; details: post-op tumescent lidocaine exposure
Protocol: The skin of the left and right thigh of a subject is cleaned and allowed to dry. […] Simultaneous 4 mm deep puncture wounds are made to the same area of the left and right thighs with disposable lancets. The puncture sites are blotted with filter paper every 30 seconds, until bleeding stops and the bleeding time for each thigh is recorded. The bleeding times of the left and right thigh are compared to determine if administration of TLAnti increases bleeding time. Normal bleeding time measured by the Duke method is 1 to 3 minutes.
In a preliminary experiment, bleeding time and bleeding area were measured in a patient before and after tumescent lidocaine exposure. […] In contrast, there was a 40% increase in Average Bleeding Area (BA). Bleeding Area (BA) was a more sensitive and a more specific test for platelet function compared to Bleeding Time (BT). […] In otherwords, TAD may reduce the risk of both post-operative surgical site infection and post-operative thromboembolism.

[9] = commercial lidocaine (1%) with epinephrine (1:100,000); cited from earlier work
[10] = Abdomen, TISF, TAD, 172 mg/L, TAD dose 600 mg
[11] = Abdomen, serum, TAD, 172 mg/L, TAD dose 600 mg

## CCCCN1CCCCC1C(=O)Nc1c(C)cccc1C (stereo not shown) [bupivacaine]
[1]
  effect on platelet aggregation induced by ADP: inhibit platelet aggregation induced by ADP

## CNC[C@H](O)c1ccc(O)c(O)c1 [Epinephrine]
[2]
  adverse local or systemic effects after subcutaneous tumescent infiltration: no adverse local or systemic effects

## Gentamicin
[3]; conclusion
  clinically significant adverse effects of subcutaneous injection in a dilute tumescent solution: without any clinically significant adverse effects
[3]
  ecchymosis: no ecchymosis
  local tenderness upon palpation: no local tenderness upon palpation
  stinging upon injection: no stinging upon injection

## Cc1nnc(SCC2=C(C(=O)O)N3C(=O)[C@@H](NC(=O)Cn4cnnn4)[C@H]3SC2)s1 [Cefazolin]
[4]; 62.5 mg/L, Day 1, MRSA Inoculum 4.7 × 10^5 CFU/ml
  MRSA survival (MBC test): +
[4]; 62.5 mg/L, Day 2, MRSA Inoculum 4.4 × 10^5 CFU/ml
  MRSA survival (MBC test): +
[4]; 125 mg/L, Day 1, MRSA Inoculum 4.7 × 10^5 CFU/ml
  MRSA survival (MBC test): +
[4]; 125 mg/L, Day 2, MRSA Inoculum 4.4 × 10^5 CFU/ml
  MRSA survival (MBC test): +
[4]; 250 mg/L, Day 1, MRSA Inoculum 4.7 × 10^5 CFU/ml
  MRSA survival (MBC test): 0
[4]; 250 mg/L, Day 2, MRSA Inoculum 4.4 × 10^5 CFU/ml
  MRSA survival (MBC test): 0
[5]
  chemically stable for: at least 72 hours
[6]
  MIC: 125 µg/mL (≈ 275 µM)
[7]
  potency of Cefazolin against MRSA in the presence of Lidocaine: not inhibited by the presence of Lidocaine

## Cc1ncc([N+](=O)[O-])n1CCO [Metronidazole]
[2]; 600 mg as TAD (400 mg) + IVAD (200 mg) vs 600 mg IVAD alone
  Cmax in subcutaneous TISF after TAD+IVAD relative to serum after IVAD alone: 10 times
[2]; TAD 500 mg vs IVAD 500 mg
  Cmax in TISF after TAD relative to Cmax in serum after IVAD: 24.7 times
[2]; [10]
  AUC: 1032 µg·h/mL
  Cmax: 160000 ng/mL
[2]; [11]
  AUC: 81 µg·h/mL
  Cmax: 4800 ng/mL
[2]; serum, IVAD, dose 600 mg
  AUC: 127 µg·h/mL
  Cmax: 14000 ng/mL
[2]
  adverse local or systemic effects after subcutaneous tumescent infiltration: no adverse local or systemic effects
[2]; equal mg doses and equal mg/L concentrations in the TAD solution
  concentration-time profiles of cefazolin and metronidazole in TISF after TAD compared: identical
[2]; serum
  initial period in which serum concentrations were greater after IVAD than after TAD; beyond it TAD greater: 10 h
[5]
  chemically stable for: at least 72 hours

## CCN(CC)CC(=O)Nc1c(C)cccc1C [Lidocaine]
[2]
  adverse local or systemic effects after subcutaneous tumescent infiltration: no adverse local or systemic effects
[4]; 1,000 mg/L, Day 1, MRSA Inoculum 4.7 × 10^5 CFU/ml
  MRSA survival (MBC test): +
[4]; 1,000 mg/L, Day 2, MRSA Inoculum 4.4 × 10^5 CFU/ml
  MRSA survival (MBC test): +
[4]; 5,000 mg/L, Day 2, MRSA Inoculum 4.4 × 10^5 CFU/ml
  MRSA survival (MBC test): +
[4]; 10,000 mg/L, Day 2, MRSA Inoculum 4.4 × 10^5 CFU/ml
  MRSA survival (MBC test): 0
Human neutrophils; concentrations 100-fold higher than safe serum lidocaine concentrations (≤5 μg/ml)
  reactive oxygen species (ROS) production by human neutrophils: effectively reduced reactive oxygen species (ROS) production
Human neutrophils; therapeutic serum lidocaine concentrations
  effect on ROS: no effect on ROS
[8]
  maximum safe dosage (estimated): 30 mg/kg
Platelet function; Patient 1 (control BA = 541)
  Average Bleeding Area (BA): BA = 759
Platelet function; Patient 1 (control BT = 6)
  Average Bleeding Time (BT): BT = 5.75
Platelet function; Patient 1, single tests T3, T4
  Bleeding Time BT × 2: 10 and 13
[1]; aggregation induced by ADP, epinephrine and collagen
  lidocaine concentration that consistently inhibits in-vitro platelet aggregation: ≥ 0.5 mg/mL
[1]
  effect on platelet aggregation induced by ADP: inhibit platelet aggregation induced by ADP
[1]; safe systemic concentrations (e.g. ≤6 micrograms/ml)
  effect on platelet aggregation: no effect on platelet aggregation
[9]
  dosage limitation approved by the FDA for infiltration local anesthesia: 7 mg/kg

## CCOC(=O)c1ccc(N)cc1 [benzocaine]
[1]
  effect on platelet aggregation induced by ADP: inhibit platelet aggregation induced by ADP

## Nc1nc2c(ncn2COCCO)c(=O)[nH]1 [Acyclovir]
[3]
  ecchymosis: no ecchymosis
  local tenderness upon palpation: no local tenderness upon palpation
  stinging upon injection: no stinging upon injection
